Results reported in patent US11850238B2, “Use of a thienopyridone derivative in the treatment of adrenoleukodystrophy or adrenomyeloneuropathy” (POXEL, priority 2020, dated 2023).

Tests used:
ABCD2 [1] = assay: Western blot of ABCD2 expression in ALD-KO mouse brain cortex mixed glial cells; assay type: cell-based; conditions: vs non-treated, FIG. 4
Protocol: (§1) The cells were washed with cold Tris-buffered saline (20 mM Trizma base and 137 mM NaCl, pH 7.5) and lysed in 1×SDS sample-loading buffer (62.5 mM Trizma base, 2% [w/v] SDS, 10% glycerol), and after sonication and centrifugation at 15,000 g for 5 min, the supernatant was used for the immunoblot assay. The protein concentration of samples was determined with the detergent compatible protein assay reagent (Bio-Rad) using BSA as the standard. The sample was boiled for 3 min with 0.1 volumes of 10% β mercaptoethanol and 0.5% bromphenol blue mix. Then, 40 μg of total cellular protein was resolved by electrophoresis on 8 or 12% polyacrylamide gels, electrotransferred and blocked with Tween 20-containing Tris-buffered saline (TBST; 10 mM Trizma base, pH 7.4, 1% Tween 20, and 150 mM NaCl) with 5% skim milk. After incubation with antibodies against ABCD2, ABCD3, and (β-actin at 4^0 overnight, the membranes were then washed with TBST and incubated with horseradish peroxidase-conjugated anti-rabbit or mouse IgG for 1 h at room temperature. The membranes were detected by autoradiography using ECL-plus (Amersham Biosciences) after washing with TBST buffer.
The same experimental protocol as in example 4 was performed for ALD-KO mouse brain cortex mixed glial cells. This model is mainly a model for AMN. […]

[2] = test system: AMN human patient-derived primary fibroblasts; assay: Hexacosanoic acid (VLCFA) level in AMN patient-derived fibroblasts, LC-MS; assay type: cell-based
Protocol: In order to compare the efficacy of PXL770 and metformin to lower very long chain fatty acids (VLCFA) in vitro, the study focuses on the level assessment of the hexacosanoic acid, which is the most prevalent VLCFA, in healthy control cells and in AMN human patient-derived primary fibroblasts. The cell lines were obtained from Coriell Cell Repositories. Fibroblasts were cultured in DMEM with 15% FBS. The cultures were split in 1:5 ratio. Fibroblasts from healthy patients were used as control. All treatments were in complete media containing fetal bovine serum (FBS, 15%). All cultured cells were maintained at 37° C. in 5% CO2.
VLCFA content was then measured as follows. Samples are adjusted to a final volume of 0.5-1 ml with LC-MS grade water and spiked with 10 ng of Lignoceric acid-d4 as an internal standard. The sample is acidified to pH 3-4 with dilute hydrochloric acid and extracted with isooctane-ethyl acetate (9:1) three times with equal volume. The extract is dried under nitrogen and the residue is reconstituted in methanol-water-ammonium acetate (75:25:10 mM).
Total fatty acids: After preparing the samples with internal standard as described above for free fatty acids, aqueous sodium hydroxide is added to a final concentration of 1 M. The mixture is incubated at 37° C. in dark under nitrogen for 3 h. The samples are then acidified, extracted, and reconstituted as described above.
LC-MS analysis of fatty acids: The reconstituted fatty acid extracts are subjected to HPLC on Targa C8 column (2×10 mm) using methanol-aqueous ammonium acetate (10 mM) solvent mixture. The column is eluted with a gradient of methanol (75 to 90%) over 8 min at a flow rate of 0.25 ml/min. The column eluent is directly introduced to mass analyzer (QTRAP5500) and monitored for fatty acids using published pseudo MRM method. Under these conditions, the VLCFA elute between 5 and 8 min. Each fatty acid is quantitated against the added internal standard.
The study planned different groups of patients. First, the evolution of hexacosanoic acid in fibroblasts is monitored in healthy control cells and in AMN human patient-derived primary fibroblasts; and in a second time a treatment of PXL770 was assigned to AMN human-derived primary fibroblasts in culture at different doses (PXL770: 0.1, 0.5, 1, 2, 3.5 and 5 μM; metformin: 100, 200, 300 and 400 μM) for one week and the level of hexacosanoic acid was measured.
The experiment described in Example 3 was reproduced with various thienopyridone compounds, namely: • PXL770: potassium 2-chloro-3-(5-hydroxytetralin-6-yl)-6-oxo-5-phenyl-7H-thieno[2,3-b]pyridin-4-olate • PXL700: 2-chloro-4-hydroxy-3-indan-5-yl-5-(3-pyridyl)-7H-thieno[2,3-b]pyridin-6-one • PXL702: 2-chloro-4-hydroxy-3-(4-hydroxyindan-5-yl)-5-phenyl-7H-thieno[2,3-b]pyridin-6-one • PXL695: 2-chloro-5-(3-fluorophenyl)-4-hydroxy-3-(4-hydroxyindan-5-yl)-7H-thieno[2,3-b]pyridin-6-one, • each tested at concentrations from 0.1 to 5 μM.
(§2) A one-way ANOVA with Dunnett's multiple comparison test was performed to assess the effect of PXL770 on brain's VLCFAs (**** p<0.0001, *** p<0.001). A Kruskal-Wallis test with Dunn's multiple comparison test was performed to assess the effect of PXL770 on plasma's VLCFAs (**** p<0.0001, […]).

ABCD1-KO mice = assay: In vivo X-ALD mouse, 60 days: VLCFA (C26:0) in brain cortex and plasma; conditions: male ABCD1-KO mice, 75 mg/kg oral gavage twice a day
Protocol: Male ABCD1-KO mice (n=15) were treated with oral gavage of PXL770 (75 mg/kg) twice a day, every day for 60 days. Untreated ABCD1-KO mice (n=15) and wild-type (WT) mice (n=12) served as controls. Post-treatment mice were sacrificed and brain cortex and plasma were collected for VLCFA analysis. The analysis was performed according to the standardized protocols of the Lipidomics Core Facility and data are expressed as VLCFA μg/ml levels. Hexacosanoic acid (C26:0) was selected as representative for VLCFAs.
as §2

ABCD2 [3] = assay: Western blot of ABCD2 expression in AMN fibroblasts; assay type: cell-based, human; conditions: AMN fibroblasts, 5, 10, 25 μM, vs control and untreated AMN fibroblasts; FIG. 2
Protocol: More specifically, protein extraction was performed as follows.
as §1
The experiments described in Examples 4 and 6 were performed with metformin by the same lab and described by Singh et al. in Journal of Neurochemistry, 2016; 138, 86-100.

Q: With `O=c1[nH]c2sc(Cl)c(-c3ccc4c(c3O)CCCC4)c2c([O-])c1-c1ccccc1.[K+]` [PXL770, monohydrate potassium salt of 2-chloro-4-hydroxy-3-(5-hydroxytetralin-6-yl)-5-phenyl-7H-thieno[2,3-b]pyridin-6-one] as the molecule, how does the “expression of ABCD2 (Western blot)” value (ABCD2 [1]) read?
A: overexpression

Q: And the “potency and efficacy compared to metformin” value ([2]; AMN fibroblasts, PXL770 0.1-5 μM vs metformin 100-400 μM, one week, FIG. 10)?
A: much higher potency and efficacy

Q: And the “level of hexacosanoic acid” value ([2]; AMN fibroblasts, increasing doses 0.1-5 μM, one week, FIG. 10)?
A: decreases

Q: And the VLCFA levels ([2]; AMN patient-derived fibroblasts, concentrations from 0.1 to 5 μM, FIG. 14)?
A: comparable decrease

Q: And the “VLCFA accumulation in the brain cortex” value (ABCD1-KO mice; FIG. 7)?
A: significantly reduces

Q: And the “VLCFA accumulation in the plasma” value (ABCD1-KO mice; FIG. 8)?
A: significantly reduces

Q: And the “expression of ABCD2 (Western blot)” value (ABCD2 [3])?
A: overexpression
